Some results are limits rather than exact numbers.

A short description of series [1]: βHB blood plasma concentration after 18 g βHB in microbeads or free (Example 3 cross-over trial). In kind it is in vivo, human. The following applies: n=10. From the text: A dose of βHB contained in microbeads was 20 g of microbeads containing a mix of 50% R-3-hydroxybutyrate mineral salts (Na/Ca/K/Mg Blend 1:1:1:2) and 50% R-3-hydroxybutyric acid (βHB formulation). In particular, said βHB formulation was enriched in pockets dispersed throughout a polymerized yellow pea protein matrix of the microbead particles and constituted approximately 89 to 90% of the weight of the microbead. Thus, the βHB formulation comprised in said dose was about 18 g, in particular about 17.8 g.
The dose of non-enclosed (free) βHB was also about 18 g, in particular about 17.8 g, and the dose of empty microbeads was about 2 g, in particular about 2.2 g. Thus, the free βHB and empty microbeads were direct controls of the composition comprising βHB contained in microbeads.
For administration, one dose was suspended in 250 ml of lemon-flavored non-caloric water.
Participants arrived at the laboratory between 7.30 and 9.00 after an overnight fast, and provided a urine sample for hydration assessment (PEN Refractometer, Atago Instruments). Next, a fasting blood sample was taken via a cannula inserted into a superficial forearm vein for serial blood sampling. After providing a “fasting” blood sample, participants ingested a 250 mL lemon flavored non-caloric water drink wherein the 18 g dose of a microbead comprising the βHB formulation was suspended. After supplementation, baseline determinations tests were repeated for comparison between the pre- and post-supplementation periods. Every 30 min for three hours after ingestion, a blood sample was taken. After 3 hours, a blood sample was taken at 1-hour intervals. After 8 hours, a blood sample was taken at 2-hour intervals. Participants remained in the lab at quiet rest throughout this time period and were permitted to use entertainment headsets and the digital library and were allowed make short walks outside. […] The blood samples were, at least for the determination of AcAc levels, directly analyzed within 2 hours (or otherwise stored at −80° C. before analysis). […]

Series [2] in a line: Glucose blood plasma levels, Example 3 trial. Type of series: in vivo, human. The settings on record: about 18 g βHB formulation; snack provided at 6 h; n=10. As to the method:
Participants arrived at the laboratory between 7.30 and 9.00 after an overnight fast, and provided a urine sample for hydration assessment (PEN Refractometer, Atago Instruments). Next, a fasting blood sample was taken via a cannula inserted into a superficial forearm vein for serial blood sampling. After providing a “fasting” blood sample, participants ingested a 250 mL lemon flavored non-caloric water drink wherein the 18 g dose of a microbead comprising the βHB formulation was suspended. After supplementation, baseline determinations tests were repeated for comparison between the pre- and post-supplementation periods. Every 30 min for three hours after ingestion, a blood sample was taken. After 3 hours, a blood sample was taken at 1-hour intervals. After 8 hours, a blood sample was taken at 2-hour intervals. Participants remained in the lab at quiet rest throughout this time period and were permitted to use entertainment headsets and the digital library and were allowed make short walks outside. Participants were offered some small snack 6 hours after consumption of the prototype drink which they could choose from low caloric yoghurts, muesli bars and low caloric fruit juices. […] The blood samples were, at least for the determination of AcAc levels, directly analyzed within 2 hours (or otherwise stored at −80° C. before analysis). […]

For series [3] the following is noted: in vivo.
Excerpt: (§1) The participants went to the visits A, B and C in a randomized order.
(§2) The experimental setup allowed to directly determine the physiological effects of ingesting βHB enclosed in microbeads compared to standard non-enclosed βHB. To distinguish the effects of βHB from effects of the enclosing material, i.e. the pea protein, participants have also ingested empty microbeads on one trial day.
The nature of series [4]: Tolerability of βHB, Example 3 trial. The following applies: about 18 g dose.
Excerpt: as §1, §2
Where [5] appears, read: about 18 g βHB formulation oral.

Consider `C[C@@H](O)CC(=O)O` [free βHB, R-3-hydroxybutyric acid], for which the “average plasma βHB concentration at peak” value in series [1] (about 18 g βHB formulation oral in 250 ml lemon-flavored water, first measurement time-point) amounted to 1.5 mM. In addition, in series [1] (setting [5]), the “time within which plasma βHB concentration dropped to baseline levels” value is no more than 2 h and the “time-point of peak average plasma βHB concentration” value is 0.5 h. In addition, the “blood glucose levels upon ingestion” value in series [2] is “not altered for at least 4 hours”. Besides, the “tolerability of the dose” value in series [3] was “poorly tolerated”. Further, in series [4] (of 10 participants), the “participants expressing mild nausea” value was found to be 4 participants; the “participants expressing severe discomfort and sickness” value was 3 participants. Also, the “participants reporting gastrointestinal distress (stomach cramping, upset, nausea, bloating, diarrhea)” value in series [4] (within the first hour upon ingestion) is 7 of 10 participants.

Source of the values: patent publication US20220257546A1, “KETONE BODIES ENCLOSED IN MICROBEADS” (Ketoswiss AG, priority 2019, published 2022).
